What all share (type): cell-based
The subject of one assay is Esch. coli 95 I.S.M. Briefly: M.I.C. in vitro, nutrient agar dilution. Conditions: Escherichia coli, 18 h; Table III; Esch. coli 95 I.S.M.; read-out: M.I.C. On the procedure:
(§1) After sterilisation at 120° C., the pH was 6.8.
(§2) The minimum inhibitory concentrations (M.I.C.) were determined by dilution of the test compounds in this mixture, the concentration ranging from 0.05 to 100 μg/cm^3 in a geometric progression with a factor of 2.
(§3) The inoculation of the dishes was carried out by means of a multiple inoculator with 10^-3 dilutions of 18 hour old broth cultures.
(§4) The dishes were placed in an oven at 37° C. and the readings were taken afer an incubation time of 18 hours. The M.I.C. was taken as the lowest concentration which inhibited a culture.
Background: In agar dilution the substance is mixed into plates at graded concentrations.

The subject of a further assay is Staph. 209 P. Put plainly: M.I.C. in vitro, nutrient agar dilution. The following applies: 18 h; Table III; Staph. 209 P; read-out: M.I.C. On the procedure: as §1, §2, §3, §4
The subject of another assay is Klebs. pneum. 10.031. Briefly: M.I.C. in vitro, nutrient agar dilution. The following applies: 18 h; Table III; Klebs. pneum. 10.031; read-out: M.I.C. Here is the method: as §1, §2, §3, §4
The next assay concerns Providentia 0223. Briefly: M.I.C. in vitro, nutrient agar dilution. The following applies: 18 h; Table III; Providentia 0223; read-out: M.I.C. Here is the method: as §1, §2, §3, §4
The test system of a further assay is Pr. vulgaris 12-53. Put plainly: M.I.C. in vitro, nutrient agar dilution. The following applies: Proteus vulgaris, 1253, 18 h; Table III; Pr. vulgaris 12-53; read-out: M.I.C. On the procedure: as §1, §2, §3, §4
A further assay has as its system Staph. 9.144. Briefly: M.I.C. in vitro, nutrient agar dilution. The following applies: 18 h; Table III; Staph. 9.144; read-out: M.I.C. Here is the method:
as §1, §2, §3, §4

The test system of another assay is Strepto D.M. 19. Put plainly: M.I.C. in vitro, nutrient agar dilution. Conditions: 18 h; Table III; Strepto D.M. 19; read-out: M.I.C. Here is the method: as §1, §2, §3, §4
In a further assay the test system is Pr. morganii A.236. Briefly: M.I.C. in vitro, nutrient agar dilution. Conditions: Morganella morganii, 18 h; Table III; Pr. morganii A. 236; read-out: M.I.C. Here is the method:
as §1, §2, §3, §4

A further assay deals with Strepto A 561. Put plainly: M.I.C. in vitro, nutrient agar dilution. Conditions: 18 h; Table III; Strepto A 561. On the procedure: as §1, §2, §3, §4
The next assay concerns Serratia. Put plainly: M.I.C. in vitro, nutrient agar dilution. Conditions: 18 h, Table III, read-out: M.I.C. On the procedure:
as §1, §2, §3, §4

Another assay relates to Pr. mirabilis Nig. Briefly: M.I.C. in vitro, nutrient agar dilution. Conditions: Proteus mirabilis, 18 h; Table III; Pr. mirabilis Nig; read-out: M.I.C. On the procedure:
as §1, §2, §3, §4

A further assay relates to Ps. aeruginosa 72.345. Briefly: M.I.C. in vitro, nutrient agar dilution. Conditions: Pseudomonas aeruginosa, 18 h; Table III; Pd. aeruginosa 72.345; read-out: M.I.C. Here is the method: as §1, §2, §3, §4
A further assay deals with S. oranienburg 1066. Briefly: M.I.C. in vitro, nutrient agar dilution. Conditions: Salmonella enterica, 18 h; Table III; S. oranienburg 1066; read-out: M.I.C. Here is the method:
as §1, §2, §3, §4

Another assay deals with Sh. sonnei I.P.S. Briefly: M.I.C. in vitro, nutrient agar dilution. Conditions: Shigella sonnei, 18 h; Table III; Sh. sonnei I.P.S.; read-out: M.I.C. On the procedure:
as §1, §2, §3, §4

A further assay deals with Bord. bronchis. 4.617. Briefly: M.I.C. in vitro, nutrient agar dilution. The following applies: 18 h; Table III; Bord. bronchis. 4.617; read-out: M.I.C. On the procedure: as §1, §2, §3, §4
Another assay concerns Ps. aeruginosa A.22. Briefly: M.I.C. in vitro, nutrient agar dilution. Conditions: Pseudomonas aeruginosa, 18 h; Table III; Ps. aeruginosa A.22; read-out: M.I.C. On the procedure: as §1, §2, §3, §4
A further assay concerns Arizona 6.211. Briefly: M.I.C. in vitro, nutrient agar dilution. Conditions: 18 h; Table III; Arizona 6.211; read-out: M.I.C. Here is the method:
as §1, §2, §3, §4

The test system of the next assay is B. subtilis. Put plainly: M.I.C. in vitro, nutrient agar dilution. Conditions: Bacillus subtilis, 18 h; Table III; B. Subtilis; read-out: M.I.C. On the procedure:
as §1, §2, §3, §4

The subject of another assay is Esch. coli 111 B4. Briefly: M.I.C. in vitro, nutrient agar dilution. Conditions: Escherichia coli, 18 h; Table III; Esch. coli 111 B4. On the procedure: as §1, §2, §3, §4
The subject of a further assay is S. enteritidis Danysz. Briefly: M.I.C. in vitro, nutrient agar dilution. Conditions: Salmonella enterica, 18 h; Table III; S. enteritidis Danysz; read-out: M.I.C. Here is the method:
as §1, §2, §3, §4

A further assay has as its system Esch. coli 54.127 O.M.S. Put plainly: M.I.C. in vitro, nutrient agar dilution. The following applies: Escherichia coli, 18 h; Table III; Esch. coli 54.127 O.M.S.; read-out: M.I.C. On the procedure: as §1, §2, §3, §4
The next assay deals with Salm. typhi 0901. Put plainly: microbe, parasite or virus in culture. Conditions: Salmonella enterica, 18 h; Table III; Salm. typhi 0901. On the procedure: as §1, §2, §3, §4

Values after ≈ are worked out from the molar mass of the structure shown.

`C=Cn1cc(C(=O)O)c(=O)c2cc(F)c(N3CCN(C)CC3)cc21` [Example 41, 6-Fluoro-7-(4-methyl-piperazinyl)-4-oxo-1-vinyl-1,4-dihydro-quinoline-3-carboxylic acid]: the MIC in the assay on Esch. coli 95 I.S.M. was determined as 0.1 µg/mL (≈ 0.302 µM); in the assay on Staph. 209 P it was 0.1 µg/mL (≈ 0.302 µM); with Klebs. pneum. 10.031, 0.1 µg/mL (≈ 0.302 µM); with Providentia 0223, 0.8 µg/mL (≈ 2.41 µM); with Pr. vulgaris 12-53, 0.05 µg/mL (≈ 0.151 µM); in the assay with Staph. 9.144, 0.2 µg/mL (≈ 0.604 µM). Besides, the MIC with Strepto D.M. 19 came to 3.1 µg/mL (≈ 9.36 µM); in the assay on Pr. morganii A.236, 0.05 µg/mL (≈ 0.151 µM); in the assay on Strepto A 561, 12.5 µg/mL (≈ 37.7 µM); in the assay with Serratia it was 0.4 µg/mL (≈ 1.21 µM); in the assay on Pr. mirabilis Nig, 0.05 µg/mL (≈ 0.151 µM); with Ps. aeruginosa 72.345, 0.8 µg/mL (≈ 2.41 µM). Also, the MIC was determined as 1.6 µg/mL (≈ 4.83 µM) in the assay with S. oranienburg 1066; 0.1 µg/mL (≈ 0.302 µM) in the assay on Sh. sonnei I.P.S.; 1.6 µg/mL (≈ 4.83 µM) in the assay with Bord. bronchis. 4.617; 0.4 µg/mL (≈ 1.21 µM) with Ps. aeruginosa A.22; 0.1 µg/mL (≈ 0.302 µM) with Arizona 6.211; 0.1 µg/mL (≈ 0.302 µM) with B. subtilis. In addition, the MIC in the assay with Esch. coli 111 B4, in the assay with S. enteritidis Danysz, in the assay with Esch. coli 54.127 O.M.S. and against Salm. typhi 0901 was 0.1 µg/mL (≈ 0.302 µM) throughout.
Regarding `C=CCn1cc(C(=O)O)c(=O)c2cc(F)c(N3CCN(C)CC3)cc21` [Example 34, 1-Allyl-6-fluoro-7-(4-methylpiperazinyl)-4-oxo-1,4-dihydro-quinoline-3-carboxylic acid], the MIC in the assay on Esch. coli 95 I.S.M. came out at 0.4 µg/mL (≈ 1.16 µM); in the assay with Staph. 209 P, 0.8 µg/mL (≈ 2.32 µM); with Klebs. pneum. 10.031, 0.1 µg/mL (≈ 0.29 µM); in the assay on Providentia 0223 it was 12.5 µg/mL (≈ 36.2 µM); with Pr. vulgaris 12-53, 0.2 µg/mL (≈ 0.579 µM); with Staph. 9.144 it was 1.6 µg/mL (≈ 4.63 µM). In addition, the MIC in the assay with Strepto D.M. 19 was 6.2 to 12.5 µg/mL (≈ 18 to 36.2 µM); in the assay with Pr. morganii A.236, 0.05 to 0.2 µg/mL (≈ 0.145 to 0.579 µM); against Strepto A 561 it was 50 µg/mL (≈ 145 µM); in the assay on Serratia, 0.05 to 0.4 µg/mL (≈ 0.145 to 1.16 µM); in the assay with Pr. mirabilis Nig, 0.8 to 1.6 µg/mL (≈ 2.32 to 4.63 µM); in the assay with Ps. aeruginosa 72.345, 3.1 µg/mL (≈ 8.98 µM). Further, the MIC in the assay on S. oranienburg 1066 was 12.5 µg/mL (≈ 36.2 µM); in the assay on Sh. sonnei I.P.S., 0.2 µg/mL (≈ 0.579 µM); with Bord. bronchis. 4.617, 0.2 µg/mL (≈ 0.579 µM); with Ps. aeruginosa A.22, 3.1 µg/mL (≈ 8.98 µM); in the assay on Arizona 6.211, 0.4 µg/mL (≈ 1.16 µM); with B. subtilis, 0.4 µg/mL (≈ 1.16 µM). In addition, the MIC is 0.4 µg/mL (≈ 1.16 µM) in the assay with Esch. coli 111 B4, 0.4 to 0.8 µg/mL (≈ 1.16 to 2.32 µM) in the assay on S. enteritidis Danysz, 0.4 µg/mL (≈ 1.16 µM) with Esch. coli 54.127 O.M.S. and 0.1 µg/mL (≈ 0.29 µM) in the assay with Salm. typhi 0901.

Values taken from patent US4292317A, “1,4-Dihydro-quinoline-3-carboxylic acid derivatives, process for their preparation and compositions containing them” (Laboratorie Roger Bellon, priority 1977, dated 1981).
